Test results as given in paper PMC11606603, “The membrane domains of mammalian adenylyl cyclases are lipid receptors” (eLife, 2024).
Values joined by “and” are separate entries in the source; they are usually repeats but may differ in a detail not shown here. Equal values may be shown once. Read-outs that look alike come from different tables or passages of the source.

Legend:
mAC5(membr)–AC3(cat) = molecular target: T1, mAC5(membr)–AC3(cat) (Homo sapiens, UniProt O60266+O95622); assay: AC assay, Gsα-stimulated chimera mAC5–3 in membranes from transfected HEK293 cells; type: biochemical; conditions: for Effect on Gsα-stimulated mAC5(membr)–AC3(cat) chimera: 300 nM Gsα, 20 µM oleic acid or 100 µM anandamide, in words
T1 construct: followed by AC5(1–402)_AC3(250–631)_AC5(761–1009)_AC3(862–1144); made in house; host or cells: HEK293, transfected; membrane preparation
T1 sequence (O95622 1-402): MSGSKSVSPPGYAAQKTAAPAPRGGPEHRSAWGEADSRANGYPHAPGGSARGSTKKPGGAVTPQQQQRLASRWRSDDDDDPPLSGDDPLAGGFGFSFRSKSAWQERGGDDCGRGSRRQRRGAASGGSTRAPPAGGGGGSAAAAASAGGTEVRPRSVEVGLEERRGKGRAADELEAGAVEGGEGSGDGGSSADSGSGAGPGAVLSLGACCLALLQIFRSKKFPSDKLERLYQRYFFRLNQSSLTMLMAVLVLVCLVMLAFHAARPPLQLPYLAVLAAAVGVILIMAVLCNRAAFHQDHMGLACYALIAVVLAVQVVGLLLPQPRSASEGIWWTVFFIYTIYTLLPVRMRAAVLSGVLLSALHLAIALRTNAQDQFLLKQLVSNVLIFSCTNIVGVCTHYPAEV
T1 sequence (O60266 250-631): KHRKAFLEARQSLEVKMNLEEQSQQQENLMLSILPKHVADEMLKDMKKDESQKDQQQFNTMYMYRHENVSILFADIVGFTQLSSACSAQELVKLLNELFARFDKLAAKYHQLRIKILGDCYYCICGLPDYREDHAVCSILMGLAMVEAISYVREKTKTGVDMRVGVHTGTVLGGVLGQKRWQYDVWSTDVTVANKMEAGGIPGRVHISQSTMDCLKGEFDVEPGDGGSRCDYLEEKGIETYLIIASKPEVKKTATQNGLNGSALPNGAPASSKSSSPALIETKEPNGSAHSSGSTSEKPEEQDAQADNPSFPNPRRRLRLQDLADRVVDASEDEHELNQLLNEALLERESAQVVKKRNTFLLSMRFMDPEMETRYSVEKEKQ
T1 sequence (O95622 761-1009): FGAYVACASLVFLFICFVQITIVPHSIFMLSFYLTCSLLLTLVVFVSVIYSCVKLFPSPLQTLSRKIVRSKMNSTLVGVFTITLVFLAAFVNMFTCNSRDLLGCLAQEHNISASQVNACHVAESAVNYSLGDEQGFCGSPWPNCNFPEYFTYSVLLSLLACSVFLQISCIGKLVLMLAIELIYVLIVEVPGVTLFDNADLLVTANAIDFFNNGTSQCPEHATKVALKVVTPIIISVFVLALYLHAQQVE
T1 sequence (O60266 862-1144): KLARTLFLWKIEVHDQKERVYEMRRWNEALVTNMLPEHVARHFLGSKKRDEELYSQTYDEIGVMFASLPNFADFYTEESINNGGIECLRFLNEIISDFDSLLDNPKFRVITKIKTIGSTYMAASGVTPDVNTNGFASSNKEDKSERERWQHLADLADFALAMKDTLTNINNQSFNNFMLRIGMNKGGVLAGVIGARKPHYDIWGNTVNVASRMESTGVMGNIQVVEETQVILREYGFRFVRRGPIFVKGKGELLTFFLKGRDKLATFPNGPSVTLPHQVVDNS
Description: (§1) hAC sequences were from NCBI were: ADCY1: NM_021116.3; ADCY2: NM_020546.2; ADCY3: NM_004036.4; ADCY4: NM_001198568.2; ADCY5: NM_183357.2; ADCY6: NM_015270.4; ADCY7: NM_001114.4; ADCY8: NM_001115.2; ADCY9: NM_001116.3. Human mAC genes were from GenScript and fitted with a C-terminal FLAG-tag. […] The gene was synthesized by GenScript. HEK293 cells were maintained in Dulbeccos Modified Eagle Medium (DMEM) with 10% fetal bovine serum at 37°C and 5% CO2. Transfection with AC plasmids was with PolyJet (SignaGen, Frederick, MD, USA). Permanent cell lines were generated by selection for 7 days with 600 µg/ml G418 and maintained with 300 µg/ml For membrane preparation, cells were tyrpsinized, collected by centrifugation (3000 × g, 5 min) and lysed and homogenized in 20 mM HEPES, pH 7.5, 1 mM Ethylenediaminetetraacetic acid (EDTA), 2 mM MgCl2, 1 mM Dithiothreitol (DTT), one tablet of cOmplete, EDTA-free (per 50 ml) and 250 mM sucrose by 20 strokes in a potter homogenizer on ice. Debris was removed (5 min at 1000 × g, 0°C), membranes were collected at 100,000 × g, 60 min at 0°C, suspended and stored at −80°C in 20 mM MOPS, pH 7.5, 0.5 mM EDTA, 2 mM MgCl2. Membrane preparation from mouse brain cortex was according to [Seth et al., 2020]; [Schultz and Schmidt, 1987]. Three cerebral cortices were dissected and homogenized in 4.5 ml cold 48 mM Tris–HCl, pH 7.4, 12 mM MgC1_2, and 0.1 mM Ethylene glycol-bis(β-aminoethyl ether)-N,N,N′,N′-tetraacetic acid (EGTA) with a Polytron hand disperser (Kinematica AG, Switzerland). The homogenate was centrifuged for 15 min at 12,000 × g at 4°C. The pellet was washed once with 5 ml 1 mM KHCO3. The final suspension in 2 ml 1 mM KHCO3 was stored in aliquots at −80°C.
In a volume of 10 μl, AC activities were measured using 1 mM ATP, 2 mM MgCl2, 3 mM creatine phosphate, 60 μg/ml creatine kinase, and 50 mM MOPS pH 7.5. The cAMP assay kit from Cisbio (Codolet, France) was used for detection according to the supplier’s instructions. For each assay, a cAMP standard curve was established. EC50 and IC50 values were calculated by GraphPad Prism version 8.4.3 for Windows, GraphPad Software, San Diego, CA, USA, https://www.graphpad.com .

[1] = molecular target: T2, HEK293 cells permanently transfected with mAC5 (Homo sapiens, UniProt O95622); assay: cAMP accumulation assay, isoproterenol-stimulated HEK-mAC5 cells; type: cell-based
T2 construct: Human mAC genes were from GenScript and fitted with a C-terminal FLAG-tag; FLAG (C); expressed in transfected cells; host or cells: HEK293, permanently transfected
T2 sequence (O95622 whole entry): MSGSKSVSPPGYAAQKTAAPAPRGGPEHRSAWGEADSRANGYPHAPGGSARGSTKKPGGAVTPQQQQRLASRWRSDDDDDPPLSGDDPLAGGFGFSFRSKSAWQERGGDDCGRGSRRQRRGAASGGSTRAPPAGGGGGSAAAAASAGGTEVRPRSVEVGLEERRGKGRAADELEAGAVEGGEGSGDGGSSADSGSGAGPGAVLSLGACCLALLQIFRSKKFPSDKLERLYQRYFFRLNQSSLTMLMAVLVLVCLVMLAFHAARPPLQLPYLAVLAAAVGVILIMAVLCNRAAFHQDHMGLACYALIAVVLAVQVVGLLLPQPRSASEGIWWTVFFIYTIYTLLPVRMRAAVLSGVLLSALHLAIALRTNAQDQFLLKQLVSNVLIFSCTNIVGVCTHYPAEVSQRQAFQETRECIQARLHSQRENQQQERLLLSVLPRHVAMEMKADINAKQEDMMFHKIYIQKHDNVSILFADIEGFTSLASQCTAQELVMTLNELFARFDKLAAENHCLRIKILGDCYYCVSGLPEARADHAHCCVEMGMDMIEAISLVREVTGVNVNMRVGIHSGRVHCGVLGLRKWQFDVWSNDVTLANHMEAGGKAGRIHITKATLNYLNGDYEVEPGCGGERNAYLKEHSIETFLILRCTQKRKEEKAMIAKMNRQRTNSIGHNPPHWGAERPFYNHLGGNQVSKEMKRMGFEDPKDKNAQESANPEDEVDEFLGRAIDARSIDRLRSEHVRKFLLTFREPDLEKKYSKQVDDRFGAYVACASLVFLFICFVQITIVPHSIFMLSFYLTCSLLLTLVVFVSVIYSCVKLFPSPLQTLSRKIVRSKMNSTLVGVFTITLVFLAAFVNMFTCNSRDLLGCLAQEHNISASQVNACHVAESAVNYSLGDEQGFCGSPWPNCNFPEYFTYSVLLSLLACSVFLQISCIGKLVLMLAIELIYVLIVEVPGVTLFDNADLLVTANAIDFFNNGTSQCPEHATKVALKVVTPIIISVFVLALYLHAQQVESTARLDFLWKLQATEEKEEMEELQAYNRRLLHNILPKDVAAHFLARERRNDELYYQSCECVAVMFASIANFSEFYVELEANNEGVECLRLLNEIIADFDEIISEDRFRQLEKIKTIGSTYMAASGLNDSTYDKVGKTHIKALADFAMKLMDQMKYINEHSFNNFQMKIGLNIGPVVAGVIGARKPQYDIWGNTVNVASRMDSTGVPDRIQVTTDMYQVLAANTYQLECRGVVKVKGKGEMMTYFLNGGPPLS
Description: as §1
(§2) HEK293 cells stably expressing mAC isoforms 3, 5, and mAC5(membr)_mAC3(cat) were plated at 2500–10,000 cells/well into 384-well plates. […]. Addition of Cisbio HTRF detection reagents stopped the reaction and cAMP levels were determined.

[2] = molecular target: T3, HEK293-mAC5(membr)–AC3(cat) cells (Homo sapiens, UniProt O60266+O95622); assay: cAMP accumulation assay, isoproterenol-stimulated HEK-mAC5–3 cells; type: cell-based
T3 construct: followed by AC5(1–402)_AC3(250–631)_AC5(761–1009)_AC3(862–1144); expressed in transfected cells; host or cells: HEK293, stably expressing the chimera
T3 sequence (O95622 1-402): as the sequence (O95622 1-402) above
T3 sequence (O60266 250-631): as the sequence (O60266 250-631) above
T3 sequence (O95622 761-1009): as the sequence (O95622 761-1009) above
T3 sequence (O60266 862-1144): as the sequence (O60266 862-1144) above
Description: as §1, §2

mAC9 = molecular target: T4, mAC9 (Homo sapiens, UniProt O60503); assay: AC assay, Gsα-stimulated mAC9 in membranes from transfected HEK293 cells; type: biochemical
T4 construct: Human mAC genes were from GenScript and fitted with a C-terminal FLAG-tag; FLAG (C); made in house; host or cells: HEK293, permanently transfected; membrane preparation
T4 sequence (O60503 whole entry): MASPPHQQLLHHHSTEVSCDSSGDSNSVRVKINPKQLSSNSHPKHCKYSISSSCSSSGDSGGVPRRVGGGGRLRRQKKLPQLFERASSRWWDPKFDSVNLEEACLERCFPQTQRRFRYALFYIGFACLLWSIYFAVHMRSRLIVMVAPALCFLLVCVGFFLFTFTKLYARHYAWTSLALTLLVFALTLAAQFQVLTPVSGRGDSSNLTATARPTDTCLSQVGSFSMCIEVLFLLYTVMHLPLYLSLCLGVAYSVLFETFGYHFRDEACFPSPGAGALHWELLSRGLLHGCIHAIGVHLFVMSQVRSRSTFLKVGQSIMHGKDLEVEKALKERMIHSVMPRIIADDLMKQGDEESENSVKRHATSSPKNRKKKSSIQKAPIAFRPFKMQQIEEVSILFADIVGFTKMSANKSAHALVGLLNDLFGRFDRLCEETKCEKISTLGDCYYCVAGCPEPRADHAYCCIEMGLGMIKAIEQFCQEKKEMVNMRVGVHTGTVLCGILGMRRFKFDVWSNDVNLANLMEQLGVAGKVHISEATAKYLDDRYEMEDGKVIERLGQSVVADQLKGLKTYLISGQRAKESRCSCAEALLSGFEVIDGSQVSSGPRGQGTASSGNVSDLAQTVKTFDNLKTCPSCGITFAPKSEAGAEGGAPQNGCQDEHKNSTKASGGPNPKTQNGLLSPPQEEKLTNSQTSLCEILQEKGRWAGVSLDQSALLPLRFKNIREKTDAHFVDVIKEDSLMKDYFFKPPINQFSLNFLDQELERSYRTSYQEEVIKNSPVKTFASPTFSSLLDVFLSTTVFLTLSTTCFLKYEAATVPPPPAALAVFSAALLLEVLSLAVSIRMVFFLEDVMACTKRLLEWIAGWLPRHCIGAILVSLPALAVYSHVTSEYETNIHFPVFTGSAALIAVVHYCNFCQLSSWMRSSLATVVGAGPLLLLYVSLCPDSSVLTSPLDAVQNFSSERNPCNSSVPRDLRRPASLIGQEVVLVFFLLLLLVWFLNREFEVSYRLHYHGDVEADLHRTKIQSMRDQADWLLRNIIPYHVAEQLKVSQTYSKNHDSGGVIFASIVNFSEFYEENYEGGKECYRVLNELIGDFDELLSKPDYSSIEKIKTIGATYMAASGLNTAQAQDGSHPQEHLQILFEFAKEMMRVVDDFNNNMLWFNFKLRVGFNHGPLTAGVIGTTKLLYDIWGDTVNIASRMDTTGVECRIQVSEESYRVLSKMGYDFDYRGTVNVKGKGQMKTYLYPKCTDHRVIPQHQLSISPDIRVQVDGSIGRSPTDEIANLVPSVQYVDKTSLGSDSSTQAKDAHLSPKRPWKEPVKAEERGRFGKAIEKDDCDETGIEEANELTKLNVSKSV
T4 sequence (P63092 2-394 Q227L partner): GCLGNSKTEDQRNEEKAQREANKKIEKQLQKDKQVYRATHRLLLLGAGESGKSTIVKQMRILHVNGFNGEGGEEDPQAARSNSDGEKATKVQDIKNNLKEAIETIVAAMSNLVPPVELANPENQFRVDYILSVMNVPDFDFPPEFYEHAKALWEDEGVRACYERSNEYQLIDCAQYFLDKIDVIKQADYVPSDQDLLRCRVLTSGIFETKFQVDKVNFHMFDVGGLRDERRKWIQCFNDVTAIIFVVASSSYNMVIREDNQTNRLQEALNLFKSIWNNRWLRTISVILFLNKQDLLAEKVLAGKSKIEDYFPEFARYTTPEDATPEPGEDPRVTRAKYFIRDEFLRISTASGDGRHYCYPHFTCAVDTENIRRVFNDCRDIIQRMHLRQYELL
Procedure, shortened: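 Human AC, FLAG-tagged, stably expressed in HEK293; membranes used as enzyme. 1 mM ATP, 2 mM MgCl2, ATP regeneration, MOPS pH 7.5; cAMP kit readout.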

[3] = 20 µM fatty acid, 300 nM Gsα, single experiments

CCCCC/C=C\C/C=C\C/C=C\C/C=C\CCCC(=O)NCCO [Anandamide, arachidonoylethanolamide]
Effect on Gsα-stimulated mAC5(membr)–AC3(cat) chimera (mAC5(membr)–AC3(cat)): attenuated
IC50 (mAC5(membr)–AC3(cat); attenuation of 300 nM Gsα-stimulated activity): 29 µM
activity [%] (100% = 300nM Gsα stimulation) (mAC5(membr)–AC3(cat); mAC 5-3, 100µM Anandamide concentration, Figure 9 D): 41% and 69% and 72% and 65% and 48% and 42%
activity [%] (100% = 300nM Gsα stimulation) (mAC5(membr)–AC3(cat); mAC5-3, Anandamide 0.1 µM): 100%
activity [%] (100% = 300nM Gsα stimulation) (mAC5(membr)–AC3(cat); mAC5-3, Anandamide 1 µM): 126% and 93% and 106% and 127% and 130% and 123%
activity [%] (100% = 300nM Gsα stimulation) (mAC5(membr)–AC3(cat); mAC5-3, Anandamide 3 µM): 121% and 102% and 118% and 146% and 144% and 129%
activity [%] (100% = 300nM Gsα stimulation) (mAC5(membr)–AC3(cat); mAC5-3, Anandamide 10 µM): 109% and 100% and 102% and 111% and 132% and 115%
activity [%] (100% = 300nM Gsα stimulation) (mAC5(membr)–AC3(cat); mAC5-3, Anandamide 30 µM): 77% and 70% and 88% and 68% and 74%
activity [%] (100% = 300nM Gsα stimulation) (mAC5(membr)–AC3(cat); mAC5-3, Anandamide 100 µM): 72% and 65% and 48% and 42% and 41% and 69%
IC50 ([1]; 2.5 µM isoproterenol): 133 µM
attenuation of cAMP formation in HEK293-mAC5 cells ([1]; 100 µM anandamide, 2.5 µM isoproterenol): 23%
HEK-mAC activity (%); 100%= 2.5µM Isoproterenol stimulation, HEK-mAC5 ([1]; Anandamide 1 µM): 110% and 105% and 81% and 111% and 118% and 98% and 96% and 86%
HEK-mAC activity (%); 100%= 2.5µM Isoproterenol stimulation, HEK-mAC5 ([1]; Anandamide 3 µM): 110% and 102% and 93% and 132%
HEK-mAC activity (%); 100%= 2.5µM Isoproterenol stimulation, HEK-mAC5 ([1]; Anandamide 10 µM): 108% and 103% and 116% and 87% and 120% and 105% and 102%
HEK-mAC activity (%); 100%= 2.5µM Isoproterenol stimulation, HEK-mAC5 ([1]; Anandamide 30 µM): 98% and 88% and 95% and 102%
HEK-mAC activity (%); 100%= 2.5µM Isoproterenol stimulation, HEK-mAC5 ([1]; Anandamide 60 µM): 95% and 75% and 88% and 93% and 110%
HEK-mAC activity (%); 100%= 2.5µM Isoproterenol stimulation, HEK-mAC5 ([1]; Anandamide 100 µM): 79% and 86% and 94% and 77% and 62% and 71%
activity at 0.1 µM ([1]; HEK293, read-out: HEK-mAC activity (%), 100%= 2.5µM Isoproterenol stimulation, HEK-mAC5, Anandamide 0.1 µM): 100%
activity at 30 µM ([1]; HEK293, read-out: HEK-mAC activity (%), 100%= 2.5µM Isoproterenol stimulation, HEK-mAC5, Anandamide 30 µM): 100%
Effect on basal activity of HEK-mAC5 ([1]; up to 100 µM, data not shown, in words): no effect
attenuation of cAMP formation in HEK293-mAC5(membr)–AC3(cat) cells ([2]; 2.5 µM isoproterenol): 66%
IC50 ([2]; 2.5 µM isoproterenol, +0.5 mM IBMX): 60 µM
activity at 0.1 µM ([2]; read-out: HEK-mAC activity (%), 100%= 2.5µM Isoproterenol stimulation, HEK-mAC5-3, Anandamide 0.1 µM): 100%
activity at 100 µM ([2]; read-out: HEK-mAC activity (%), 100%= 2.5µM Isoproterenol stimulation, HEK-mAC5-3, Anandamide 100 µM): 41%

CCCCCCCC/C=C\CCCCCCCC(=O)O [Oleic acid, Oleic ((9Z)-octadecenoic) acid]
Effect of lipid on 300 nM Gsα-stimulated mAC9 (mAC9; 20 µM, in words): significantly enhanced
mAC9 activity [%] (100% = 300nM Gsα stimulation) (mAC9; Figure 5 B, oleic acid 0.3 µM): 100%
EC50 (mAC9; enhancement of 300 nM Gsα-stimulated activity, read-out: EC50 for mAC9): 7.8 µM
Effect on Gsα-stimulated mAC5(membr)–AC3(cat) chimera (mAC5(membr)–AC3(cat)): not enhanced
Effect on isoproterenol-stimulated cAMP formation in HEK-mAC5 ([1]; 2.5 µM isoproterenol, in words): unaffected
AC activity (%); 100%= 2.5µM Isoproterenol stimulation ([1]; HEK-mAC5, oleic acid 20 µM): 107% and 100% and 135%
Effect on cAMP formation in HEK293-mAC5(membr)–AC3(cat) cells ([2]; in words, data not shown): ineffective

CCCCC/C=C\C/C=C\C/C=C\C/C=C\CCCC(=O)O [Arachidonic acid, Arachidonic ((5Z,8Z,11Z,14Z)-eicosatetraenoic) acid]
EC50 (mAC9): 7.5 µM
mAC9 activity (%);(100% = Gsα stimulation) stimulated by 300nM Gsα (mAC9; 1 µM fatty acid, 300 nM Gsα, single experiments): 99% and 60% and 111% and 93%
mAC9 activity (%);(100% = Gsα stimulation) stimulated by 300nM Gsα (mAC9; [3]): 234% and 150% and 190% and 172% and 188% and 135%
mAC9 activity [%] (100% = 300nM Gsα stimulation); 20µM fatty acid concentration (mAC9; [3]): 172% and 188% and 135% and 234% and 150% and 190%
